The results in this text go back to ChEMBL document CHEMBL4251578, “Design, synthesis and biological evaluation of novel 2-aminobenzamides containing dithiocarbamate moiety as histone deacetylase inhibitors and potent antitumor agents” (Eur J Med Chem, 2018).

In one assay the test system is MGC-803. As to the kind of experiment: Antiproliferative activity against human MGC803 cells at 8 uM after 72 hrs by CCK-8 assay relative to control. The format is functional. Particulars: MGC-803, 72 h.
In a further assay the test system is HeLa. As to the kind of experiment: Antiproliferative activity against human HeLa cells at 8 uM after 72 hrs by CCK-8 assay relative to control. The format is functional.
The next assay has as its target Histone deacetylase. Briefly: Inhibition of HDAC in human HeLa cell extract using Fluor de Lys-Green as substrate preincubated for 5 mins followed by substrate addition and measured after 1 hr by fluorescence assay. In kind it is protein assay.
Assay [1] has as its target T1, Protein deacetylase HDAC6 (Homo sapiens, UniProt Q9UBN7).
T1 sequence (Q9UBN7 whole entry): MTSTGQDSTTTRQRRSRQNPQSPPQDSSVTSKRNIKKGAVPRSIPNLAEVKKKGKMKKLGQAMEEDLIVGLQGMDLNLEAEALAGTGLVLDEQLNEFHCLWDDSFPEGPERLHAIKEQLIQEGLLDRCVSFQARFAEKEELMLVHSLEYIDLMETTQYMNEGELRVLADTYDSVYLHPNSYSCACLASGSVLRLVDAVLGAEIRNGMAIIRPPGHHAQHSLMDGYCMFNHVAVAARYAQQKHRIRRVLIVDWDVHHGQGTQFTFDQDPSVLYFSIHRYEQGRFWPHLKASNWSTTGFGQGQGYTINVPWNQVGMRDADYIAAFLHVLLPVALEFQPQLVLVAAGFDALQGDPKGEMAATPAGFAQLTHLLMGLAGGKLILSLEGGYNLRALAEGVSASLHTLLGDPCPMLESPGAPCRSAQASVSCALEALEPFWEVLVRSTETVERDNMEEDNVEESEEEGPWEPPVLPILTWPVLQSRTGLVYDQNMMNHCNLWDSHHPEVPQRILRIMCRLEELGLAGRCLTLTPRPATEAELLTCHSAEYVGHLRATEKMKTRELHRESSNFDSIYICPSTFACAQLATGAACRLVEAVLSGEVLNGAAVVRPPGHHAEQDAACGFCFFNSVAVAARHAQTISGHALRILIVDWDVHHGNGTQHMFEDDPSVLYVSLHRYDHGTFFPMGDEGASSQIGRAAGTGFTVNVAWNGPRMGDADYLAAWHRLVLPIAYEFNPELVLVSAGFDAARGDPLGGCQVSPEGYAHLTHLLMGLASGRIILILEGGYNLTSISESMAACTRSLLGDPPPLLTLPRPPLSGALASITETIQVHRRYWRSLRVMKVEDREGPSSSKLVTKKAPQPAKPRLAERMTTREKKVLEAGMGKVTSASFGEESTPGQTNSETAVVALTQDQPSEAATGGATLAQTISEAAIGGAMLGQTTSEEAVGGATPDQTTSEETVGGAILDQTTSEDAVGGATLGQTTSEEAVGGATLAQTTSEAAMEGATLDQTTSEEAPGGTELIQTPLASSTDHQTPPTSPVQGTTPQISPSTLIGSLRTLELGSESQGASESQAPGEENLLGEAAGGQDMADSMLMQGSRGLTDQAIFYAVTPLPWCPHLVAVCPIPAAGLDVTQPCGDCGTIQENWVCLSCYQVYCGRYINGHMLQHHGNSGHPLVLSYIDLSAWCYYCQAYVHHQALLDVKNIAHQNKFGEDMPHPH
Briefly: Inhibition of human recombinant HDAC6 using Fluor de Lys-Green as substrate preincubated for 5 mins followed by substrate addition and measured after 1 hr by fluorescence assay.

Assay [2] relates to SMMC-7721. Briefly: Cell cycle arrest in human SMMC7721 cells assessed as accumulation of cells at G0/G1 phase at 0.125 umol/L after 72 hrs by propidium iodide staining-based flow cytometric analysis (reference value: 80.65%). The format is functional.
The subject of assay [3] is SMMC-7721. Briefly: Cell cycle arrest in human SMMC7721 cells assessed as accumulation of cells at […] phase after 72 hrs by propidium iodide staining-based flow cytometric analysis. In kind it is functional.

Regarding `CCN(Cc1ccncc1)C(=S)SCc1ccc(C(=O)Nc2ccccc2N)cc1`, the inhibition at 8 µM in the assay with MGC-803 amounted to 85.2%; in the assay with HeLa, 77.7%. Further, the IC50 at Histone deacetylase was 1.8 µM; in assay [1] it was greater than 40 µM. In addition, the Activity entry in the assay on SMMC-7721 [2] was “Dose-dependent effect”; in the assay with SMMC-7721 [2] (record 2) it was 81.27%; in the assay with SMMC-7721 [3] it was “Dose-dependent effect”.

For `Nc1ccccc1NC(=O)c1ccc(CSC(=S)N2CCc3ccccc3C2)cc1`, the inhibition at 8 µM with MGC-803 was 87.5%; in the assay with HeLa, 76.3%. Further, the IC50 in assay [1] is greater than 40 µM. For the same molecule, the Activity entry in the assay on SMMC-7721 [2] is “Dose-dependent effect”; in the assay on SMMC-7721 [2] (record 2) it was 78.41%; in the assay with SMMC-7721 [3], “Dose-dependent effect”.

`Nc1ccccc1NC(=O)c1ccc(CSC(=S)N2CCN(c3ccncc3)CC2)cc1`: the inhibition at 8 µM in the assay with MGC-803 amounted to 87.1%; in the assay with HeLa it was 77.4%. For the same molecule, the values for the IC50 (against Histone deacetylase; in assay [1]) were 0.72 µM and greater than 40 µM, respectively. Further, the values for the Activity result in the assay with SMMC-7721 [2] and in the assay on SMMC-7721 [2] (record 2) were “Dose-dependent effect” and 80.71%, respectively.
